Data reported in patent US20230219904A1 (SYNGENTA CROP PROTECTION AG, priority 2020, published 2023).

Tests used:
Assay type in all cases: in vivo
Conditions in all cases: evaluated after 13 days
Setaria faberi (SETFA) [1] = test: Post-emergence herbicidal glasshouse test (Table B1)
How it was run: (§1)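 Plants were grown in standard soil under controlled glasshouse conditions (24/16° C, 14 hours light, 65% humidity) and treated by spraying at 500 g/h unless otherwise indicated. Percentage damage was evaluated after 13 days and expressed on a five-point scale.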

[2] = system: Echinochloa crus-galh (ECHCG); test: as above
How it was run: as §1

[3] = system: Abutilon theophrasti (ABUTH); test: as above
How it was run: as §1

[4] = system: Amaranthus retoflexus (AMARE); test: as above
How it was run: as §1

[5] = system: Ipomoea hederacea (IPOHE); test: as above
How it was run: as §1

Setaria faberi (SETFA) [6] = test: Pre-emergence herbicidal glasshouse test (Table B1)
How it was run: as §1

[7] = system: Echinochloa crus-galh (ECHCG); test: as above
How it was run: as §1

[8] = system: Abutilon theophrasti (ABUTH); test: as above
How it was run: as §1

[9] = system: Amaranthus retoflexus (AMARE); test: as above
How it was run: as §1

[10] = system: Ipomoea hederacea (IPOHE); test: as above
How it was run: as §1

Row | Structure (SMILES) | POST Application SETFA, percentage damage on five-point scale (Setaria faberi (SETFA) [1]; applied at 500 g/h) | POST Application ECHCG, percentage damage on five-point scale ([2]; applied at 500 g/h) | POST Application ABUTH, percentage damage on five-point scale ([3]; applied at 500 g/h) | POST Application AMARE, percentage damage on five-point scale ([4]; applied at 500 g/h) | POST Application IPOHE, percentage damage on five-point scale ([5]; applied at 500 g/h) | PRE Application SETFA, percentage damage on five-point scale (Setaria faberi (SETFA) [6]; applied at 500 g/h) | PRE Application ECHCG, percentage damage on five-point scale ([7]; applied at 500 g/h) | PRE Application ABUTH, percentage damage on five-point scale ([8]; applied at 500 g/h) | PRE Application AMARE, percentage damage on five-point scale ([9]; applied at 500 g/h) | PRE Application IPOHE, percentage damage on five-point scale ([10]; applied) | POST Application SETFA, percentage damage on five-point scale (Setaria faberi (SETFA) [1]; applied at 125 g/ha) | POST Application ECHCG, percentage damage on five-point scale ([2]; applied at 125 g/ha) | POST Application ABUTH, percentage damage on five-point scale ([3]; applied at 125 g/ha) | POST Application AMARE, percentage damage on five-point scale ([4]; applied at 125 g/ha) | POST Application IPOHE, percentage damage on five-point scale ([5]; applied at 125 g/ha) | PRE Application SETFA, percentage damage on five-point scale (Setaria faberi (SETFA) [6]; applied at 125 g/ha) | PRE Application ECHCG, percentage damage on five-point scale ([7]; applied at 125 g/ha) | PRE Application ABUTH, percentage damage on five-point scale ([8]; applied at 125 g/ha) | PRE Application AMARE, percentage damage on five-point scale ([9]; applied at 125 g/ha) | PRE Application IPOHE, percentage damage on five-point scale ([10]; applied at 125 g/ha)
1 | CCC(CC)C(=O)Nc1c(OC(F)(F)F)ccc(C(=O)Nc2nnnn2C)c1Cl [Compound 1.104] | 5 (5=80-100%) | 5 (5=80-100%) | 5 (5=80-100%) | 5 (5=80-100%) | 5 (5=80-100%) | 3 (3=40-59%) | 5 (5=80-100%) | 4 (4=60-79%) | 5 (5=80-100%) | 2 (2=20-39%) |  |  |  |  |  |  |  |  |  | 
2 | Cn1nnnc1NC(=O)c1ccc(OC(F)(F)F)c(NC(=O)C2(C)CC2)c1Cl [Compound 1.033] | 5 (5=80-100%) | 5 (5=80-100%) | 5 (5=80-100%) | 5 (5=80-100%) | 5 (5=80-100%) | 5 (5=80-100%) | 5 (5=80-100%) | 5 (5=80-100%) | 5 (5=80-100%) | 5 (5=80-100%) |  |  |  |  |  |  |  |  |  | 
3 | CCn1nnnc1NC(=O)c1ccc(OC(F)(F)F)c(NC(C)=O)c1Cl [Compound 1.015] | 5 (5=80-100%) | 5 (5=80-100%) | 5 (5=80-100%) | 5 (5=80-100%) | 5 (5=80-100%) | 2 (2=20-39%) | 4 (4=60-79%) | 5 (5=80-100%) | 5 (5=80-100%) | 1 (1=0-19%) |  |  |  |  |  |  |  |  |  | 
4 | CCC(=O)Nc1c(OC(F)F)ccc(C(=O)Nc2nnnn2C)c1C [Compound 1.126] |  |  |  |  |  |  |  |  |  |  | 5 (5=80-100%) | 5 (5=80-100%) | 5 (5=80-100%) | 5 (5=80-100%) | 4 (4=60-79%) | 2 (2=20-39%) | 5 (5=80-100%) | 5 (5=80-100%) | 5 (5=80-100%) | 3 (3=40-59%)
5 | CC(=O)Nc1c(OC(F)(F)C(F)F)ccc(C(=O)Nc2nnnn2C)c1Cl [Compound 1.031] |  |  |  |  |  |  |  |  |  |  | 4 (4=60-79%) | 4 (4=60-79%) | 4 (4=60-79%) | 4 (4=60-79%) | 4 (4=60-79%) | 3 (3=40-59%) | 4 (4=60-79%) | 4 (4=60-79%) | 5 (5=80-100%) | 3 (3=40-59%)
6 | CCn1nnnc1NC(=O)c1ccc(OC(F)(F)F)c(NC(=O)c2ccccc2OC)c1Cl [Compound 1.123] |  |  |  |  |  |  |  |  |  |  | 4 (4=60-79%) | 4 (4=60-79%) | 4 (4=60-79%) | 4 (4=60-79%) | 5 (5=80-100%) | 4 (4=60-79%) | 3 (3=40-59%) | 3 (3=40-59%) | 3 (3=40-59%) | 2 (2=20-39%)
7 | CC(=O)N(C)c1c(OC(F)(F)F)ccc(C(=O)Nc2nnc(C)o2)c1Cl [Compound 2.003] | 5 (5=80-100%) | 5 (5=80-100%) | 5 (5=80-100%) | 5 (5=80-100%) | 5 (5=80-100%) | 5 (5=80-100%) | 5 (5=80-100%) | 5 (5=80-100%) | 5 (5=80-100%) | 4 (4=60-79%) |  |  |  |  |  |  |  |  |  | 
8 | CC(=O)Nc1c(OC(F)(F)F)ccc(C(=O)Nc2nnc(C)o2)c1Cl [Compound 2.002] | 5 (5=80-100%) | 5 (5=80-100%) | 5 (5=80-100%) | 5 (5=80-100%) | 5 (5=80-100%) | 1 (1=0-19%) | 1 (1=0-19%) | 3 (3=40-59%) | 1 (1=0-19%) | 1 (1=0-19%) |  |  |  |  |  |  |  |  |  | 
9 | CCn1nnnc1NC(=O)c1ccc(OC(F)F)c(NC(=O)CC2CC2)c1Cl [Compound 1.131] | 4 (4=60-79%) | 5 (5=80-100%) | 5 (5=80-100%) | 5 (5=80-100%) | 5 (5=80-100%) | 1 (1=0-19%) | 3 (3=40-59%) | 5 (5=80-100%) | 5 (5=80-100%) | 1 (1=0-19%) |  |  |  |  |  |  |  |  |  | 
10 | CN(C(=O)CC1CC1)c1c(OC(F)F)ccc(C(=O)Nc2nnnn2C)c1Cl [Compound 1.037] |  |  |  |  |  |  |  |  |  |  | 5 (5=80-100%) | 5 (5=80-100%) | 5 (5=80-100%) | 5 (5=80-100%) | 4 (4=60-79%) | 4 (4=60-79%) | 5 (5=80-100%) | 5 (5=80-100%) | 5 (5=80-100%) | 4 (4=60-79%)
11 | CCC(=O)N(C)c1c(OC(F)F)ccc(C(=O)Nc2nnnn2C)c1Cl [Compound 1.024] |  |  |  |  |  |  |  |  |  |  | 4 (4=60-79%) | 4 (4=60-79%) | 4 (4=60-79%) | 3 (3=40-59%) | 4 (4=60-79%) | 4 (4=60-79%) | 4 (4=60-79%) | 5 (5=80-100%) | 5 (5=80-100%) | 4 (4=60-79%)
12 | CCn1nnnc1NC(=O)c1ccc(OC(F)(F)F)c(NC(=O)C2CCC2)c1Cl [Compound 1.111] | 1 (1=0-19%) | 5 (5=80-100%) | 5 (5=80-100%) | 5 (5=80-100%) | 5 (5=80-100%) | 1 (1=0-19%) | 4 (4=60-79%) | 4 (4=60-79%) | 5 (5=80-100%) | 1 (1=0-19%) |  |  |  |  |  |  |  |  |  | 
13 | Cn1nnnc1NC(=O)c1ccc(OC(F)(F)F)c(NC(=O)C2CC2)c1Cl [Compound 1.006, 2-chloro-3-(cyclopropanecarbonylamino)-N-(1-methyltetrazol-5-yl)-4-(trifluoromethoxy)benzamide] | 5 (5=80-100%) | 5 (5=80-100%) | 5 (5=80-100%) | 5 (5=80-100%) | 5 (5=80-100%) | 5 (5=80-100%) | 5 (5=80-100%) | 5 (5=80-100%) | 5 (5=80-100%) | 2 (2=20-39%) |  |  |  |  |  |  |  |  |  | 
